Measurements: patent publication US20100273780A1, “SUBSTITUTED 8-HETEROARYL XANTHINES” (PGXHEALTH, LLC, priority 2003, published 2010)

Molecular target: T1, rat A2B receptors (rA2B) (Rattus norvegicus, UniProt P29276)
T1 construct: expressed in transfected cells; host or cells: HEK-293 cells, stably transfected (G418 selection); membranes
T1 sequence (P29276 1-332): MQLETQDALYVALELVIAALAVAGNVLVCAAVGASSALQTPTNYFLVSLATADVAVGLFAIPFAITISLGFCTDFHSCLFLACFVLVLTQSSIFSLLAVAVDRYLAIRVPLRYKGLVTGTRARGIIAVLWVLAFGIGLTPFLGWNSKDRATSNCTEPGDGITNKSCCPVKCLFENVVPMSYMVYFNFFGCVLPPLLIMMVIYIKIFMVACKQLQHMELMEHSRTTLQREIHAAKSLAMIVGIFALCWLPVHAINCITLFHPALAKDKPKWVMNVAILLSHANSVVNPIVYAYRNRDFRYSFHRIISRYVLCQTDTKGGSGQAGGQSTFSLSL
Assay: Radioligand competition binding (125I-ABOPX) at rat A2B receptors in HEK-293 membranes
Conditions: displacement of specific [125I]ABOPX binding at rat A2B receptors expressed in HEK-293 cells; read-out: RatA2B Ki
Method: The plasmid was amplified in competent JM109 cells and plasmid DNA isolated using Wizard Megaprep columns (Promega Corporation, Madison, Wis.).
Transfected HEK cells were grown under 5% CO2/[…] humidified atmosphere at a temperature of 37° C. Colonies were selected by growth of cells in 0.6 mg/mL G418. Transfected cells were maintained in DMEM supplemented with Hams F12 nutrient mixture (1/1), 10% newborn calf serum, 2 mM glutamine and containing 50 IU/mL penicillin, […], and 0.2 mg/mL Geneticin (G418, Boehringer Mannheim). Cells were cultured in 10 cm diameter round plates and subcultured when grown confluent (approximately after 72 hours).
At A2B receptors: Confluent monolayers of HEK-A2B cells were washed with PBS followed by ice cold Buffer A (10 mM HEPES, 10 mM EDTA, pH 7.4) with protease inhibitors (10 μg/mL benzamidine, 100 μM phenylmethanesulfonyl fluoride, and 2 μg/mL of each aprotinin, pepstatin and leupeptin). The cells were homogenized in a Polytron (Brinkmann) for 20 s, centrifuged at 30,000×g, and the pellets washed twice with buffer HE (10 mM HEPES, 1 mM EDTA, pH 7.4 with protease inhibitors). The final pellet was resuspended in buffer HE, supplemented with 10% sucrose and frozen in aliquots at −80° C. For binding assays membranes were thawed and diluted 5-10 fold with HE to a final protein concentration of approximately 1 mg/mL. To determine protein concentrations, membranes, and bovine serum albumin standards were dissolved in 0.2% NaOH/0.01% SDS and protein determined using fluorescamine fluorescence. Stowell, C.
After incubation, 20 minutes at room temperature, 50 μL, of 10 mg/mL Na-metabisulfite in water was added to quench the reaction. The reaction mixture was applied to a C18 HPLC column, eluting with a mixture of methanol and 5 mM phosphate, pH 6.0. After 5 min at 35% methanol, the methanol concentration was ramped to 100% over 15 min.
Radioligand binding experiments were performed in triplicate with 20-25 μg membrane protein in a total volume of 0.1 mL HE buffer supplemented with 1 U/mL adenosine deaminase and 5 mM MgCl2. The incubation time was 3 h at 21° C. Nonspecific binding was measured in the presence of 100 μM NECA. […] Membranes were filtered on Whatman GF/C filters using a Brandel cell harvester (Gaithersburg, Md.) and washed 3 times over 15-20 seconds with ice cold buffer (10 mM Tris, 1 mM MgCl2, pH 7.4). Bmax and KD values were calculated by Marquardt's nonlinear least squares interpolation for single a site binding models. Marquardt, D. M., J. Soc. Indust. Appl. […] Ki values for different compounds were derived from IC50 values as described. Linden, J., J. Cycl. Nucl. […] Data from replicate experiments are tabulated as means±SEM.

Ki [nM]	SMILES
< 100	CCCn1c(=O)c2[nH]c(-c3ccc(N(C)C(=O)c4cc(C)on4)nc3)nc2n(CCC)c1=O [Compound 111, 1,3-Dipropyl-8-[6-[N-(5-methylisoxazol-3-yl-3-carbonyl)methylamino]-3-pyridyl)xanthine]
< 100	CCCn1c(=O)c2[nH]c(-c3ccc(N(C)C(=O)c4ccc(C(F)(F)F)nc4)nc3)nc2n(CCC)c1=O [Compound 121, 1,3-dipropyll-8-[6-(N-[6-(trifluoromethyl)nicotinoyl]methylamino)-3-pyridyl]xanthine]
< 500	CCn1c(=O)c2[nH]c(-c3ccc(N(CC4CC4)C(=O)c4cccnc4)nc3)nc2n(CC)c1=O [Compound 144, 1,3-Diethyl-8-[6-[N-nicotinoylcyclopropylmethylamino]-3-pyridyl)xanthine]
